The results in this text go back to article PMC6934184, “Selective DNA-PKcs inhibition extends the therapeutic index of localized radiotherapy and chemotherapy” (The Journal of Clinical Investigation, 2019).

The target in the experiment is T1, MAP3K11 (MLK3) (Homo sapiens, UniProt Q16584).
T1 construct: purchased Thermo Fisher Scientific (Life Technologies) SelectScreen
The experiment is described as follows: SelectScreen LanthaScreen. The note with it: 1 µM. The class given is binding. The method, then: The in vitro kinase selectivity of NU5455 was determined using the SelectScreen Broad Assay Panel (Thermo Fisher Scientific) involving activity and binding assays (Supplemental Table 1). […] Class IA PI3Ks were measured using the p85α subunit.
Kinase [ATP] % Assay Kinase [ATP] % Assay Kinase [ATP] % Assay Kinase [ATP] % Assay
DNA-PK Km app 98.3 Z LATS2 n/a 4.7 L KIT D820E n/a 1.3 L GSK3B (GSK3 beta) Km app -2.5 Z
PIK3C3 (hVPS34) Km app 85.9 A PRKCZ (PKC zeta) Km app 4.7 Z GRK1 n/a 1.3 L BMPR2 n/a -2.5 L
PIK3C2B (PI3K-C2 beta) 10 28.9 A FGFR1 Km app 4.7 Z BRSK2 n/a 1.2 L CDC42 BPB (MRCKB) Km app -2.5 Z
SNF1LK2 Km app 26.6 Z MINK1 Km app 4.6 Z NUAK1 (ARK5) Km app 1.2 A AMPK (A2/B2/G2) n/a -2.6 L
HCK Km app 18.0 Z CSF1R (FMS) Km app 4.3 Z CDK9/cyclin K n/a 1.0 L PRKG1 Km app -2.7 Z
NEK2 Km app 17.8 Z CSNK1G3 (CK1 gamma 3) Km app 4.2 Z NUAK2 n/a 1.0 L KIT T670E n/a -2.8 L
ALK Km app 17.3 Z STK32C (YANK3) n/a 4.2 L CDK2/cyclin O n/a 0.9 L ERBB4 (HER4) Km app -2.8 Z
FGFR3 K650M n/a 16.5 L STK22D (TSSK1) Km app 4.2 Z CAMKK2 (CaMKK beta) n/a 0.9 L PLK4 n/a -2.8 L
SIK3 n/a 16.1 L TAOK3 (JIK) n/a 4.2 L FGFR3 Km app 0.9 Z GRK7 Km app -3.0 Z
LYN A Km app 15.2 Z RPS6KA4 (MSK2) Km app 4.2 Z ULK2 n/a 0.9 L MAPKAPK2 Km app -3.1 Z
BMPR1B (ALK6) n/a 14.5 L PTK2B (FAK2) Km app 4.2 Z KIT D816V n/a 0.9 L FGFR4 Km app -3.1 Z
INSRR (IRR) Km app 14.1 Z CLK2 Km app 4.1 Z CAMK1 (CaMK1) 10 0.8 A CASK n/a -3.1 L
PLK2 Km app 14.1 Z STK24 (MST3) Km app 4.1 Z PTK6 (Brk) Km app 0.7 Z GRK5 Km app -3.2 Z
PRKACA (PKA) Km app 14.0 Z CAMK1D (CaMKI delta) Km app 4.1 Z CAMK2B (CaMKII beta) Km app 0.7 Z EGFR (ErbB1) T790M Km app -3.3 Z
EIF2AK2 (PKR) n/a 13.3 L INSR Km app 4.1 Z ACVR1 (ALK2) n/a 0.7 L PAK4 Km app -3.3 Z
PRKX Km app 12.5 Z IRAK1 Km app 4.0 A ABL1 H396P n/a 0.6 L DAPK3 (ZIPK) Km app -3.4 Z
FGR Km app 12.1 Z SRC N1 Km app 3.9 Z MERTK (cMER) A708S n/a 0.6 L RET M918T n/a -3.5 L
CLK1 Km app 11.7 Z SRPK2 Km app 3.9 Z MAPKAPK5 (PRAK) Km app 0.6 Z PRKCQ (PKC theta) Km app -3.7 Z
MARK3 Km app 11.4 Z RPS6KA6 (RSK4) Km app 3.8 Z AKT1 (PKB alpha) Km app 0.5 Z CAMKK1 (CAMKKA) n/a -3.8 L
PDGFRB (PDGFR beta) Km app 11.0 Z GRK6 Km app 3.7 Z NTRK3 (TRKC) Km app 0.4 Z FLT3 D835Y Km app -3.9 Z
PRKCN (PKD3) Km app 10.7 Z PKN1 (PRK1) Km app 3.6 Z ZAP70 Km app 0.3 Z ROCK2 Km app -4.1 Z
STK16 (PKL12) n/a 10.5 L MAP3K8 (COT) 100 3.5 Z CSNK1A1 (CK1 alpha 1) Km app 0.3 Z CHUK (IKK alpha) Km app -4.2 A
FES (FPS) Km app 10.4 Z FLT4 (VEGFR3) Km app 3.5 Z MYLK (MLCK) n/a 0.2 L AXL Km app -4.2 Z
ABL1 Km app 10.4 Z GRK4 Km app 3.5 Z MKNK2 (MNK2) n/a 0.2 L PIM2 Km app -4.3 Z
MUSK Km app 10.3 Z FRK (PTK5) Km app 3.4 Z AMPK (A1/B1/G3) n/a 0.2 L PAK1 Km app -4.4 Z
MAPK1 (ERK2) Km app 10.1 Z FYN A n/a 3.3 L MAP3K2 (MEKK2) n/a 0.1 L BMPR1A (ALK3) n/a -4.4 L
BRAF 100 9.9 Z CDK1/cyclin A2 n/a 3.3 L CDK8/cyclin C n/a 0.1 L STK4 (MST1) Km app -4.4 Z
IGF1R Km app 9.7 Z KIT V559D T670I n/a 3.1 L MARK2 Km app 0.1 Z PRKCH (PKC eta) Km app -4.6 Z
MAPK14 (p38 alpha) Km app 9.7 Z SPHK2 10 3.1 A ICK n/a 0.0 L SGKL (SGK3) Km app -4.6 Z
LCK Km app 9.6 Z FGFR3 G697C n/a 3.1 L FGFR2 Km app 0.0 Z PI4KB (PI4K beta) Km app -4.7 A
MAPK11 (p38 beta) Km app 9.5 Z RIPK2 n/a 3.1 L AKT2 (PKB beta) Km app 0.0 Z PRKCE (PKC epsilon) Km app -4.9 Z
SRC Km app 9.5 Z PAK6 Km app 3.0 Z EPHB2 Km app -0.1 Z PHKG1 Km app -5.0 Z
CHEK1 (CHK1) Km app 9.3 Z LYN B Km app 3.0 Z TGFBR2 n/a -0.1 L PDGFRA D842V Km app -5.0 Z
CAMK2D (CaMKII delta) Km app 9.3 Z DAPK2 n/a 2.9 L TEK (Tie2) Km app -0.1 Z PRKG2 (PKG2) Km app -5.1 Z
PLK1 Km app 9.2 Z EPHA4 Km app 2.9 Z AURKA (Aurora A) Km app -0.1 Z TYRO3 (RSE) Km app -5.1 Z
RET Y791F Km app 9.2 Z PIK3CG (p110 gamma) Km app 2.9 A KIT D816H n/a -0.2 L TAOK2 (TAO1) Km app -5.1 Z
FLT3 Km app 9.1 Z HIPK1 (Myak) Km app 2.8 Z KIT N822K n/a -0.2 L EPHB4 Km app -5.3 Z
MAPK10 (JNK3) 100 9.0 Z ADRBK2 (GRK3) Km app 2.8 Z PRKACG (PRKAC gamma) n/a -0.2 L AURKC (Aurora C) Km app -5.4 Z
CSNK2A2 (CK2 alpha 2) Km app 8.7 Z STK17B (DRAK2) n/a 2.7 L TEK (TIE2) Y1108F n/a -0.3 L JAK1 Km app -5.7 Z […]
In general terms: Time-resolved FRET reads energy transfer from a long-lived donor to a nearby acceptor.

T1 sequence (Q16584 whole entry): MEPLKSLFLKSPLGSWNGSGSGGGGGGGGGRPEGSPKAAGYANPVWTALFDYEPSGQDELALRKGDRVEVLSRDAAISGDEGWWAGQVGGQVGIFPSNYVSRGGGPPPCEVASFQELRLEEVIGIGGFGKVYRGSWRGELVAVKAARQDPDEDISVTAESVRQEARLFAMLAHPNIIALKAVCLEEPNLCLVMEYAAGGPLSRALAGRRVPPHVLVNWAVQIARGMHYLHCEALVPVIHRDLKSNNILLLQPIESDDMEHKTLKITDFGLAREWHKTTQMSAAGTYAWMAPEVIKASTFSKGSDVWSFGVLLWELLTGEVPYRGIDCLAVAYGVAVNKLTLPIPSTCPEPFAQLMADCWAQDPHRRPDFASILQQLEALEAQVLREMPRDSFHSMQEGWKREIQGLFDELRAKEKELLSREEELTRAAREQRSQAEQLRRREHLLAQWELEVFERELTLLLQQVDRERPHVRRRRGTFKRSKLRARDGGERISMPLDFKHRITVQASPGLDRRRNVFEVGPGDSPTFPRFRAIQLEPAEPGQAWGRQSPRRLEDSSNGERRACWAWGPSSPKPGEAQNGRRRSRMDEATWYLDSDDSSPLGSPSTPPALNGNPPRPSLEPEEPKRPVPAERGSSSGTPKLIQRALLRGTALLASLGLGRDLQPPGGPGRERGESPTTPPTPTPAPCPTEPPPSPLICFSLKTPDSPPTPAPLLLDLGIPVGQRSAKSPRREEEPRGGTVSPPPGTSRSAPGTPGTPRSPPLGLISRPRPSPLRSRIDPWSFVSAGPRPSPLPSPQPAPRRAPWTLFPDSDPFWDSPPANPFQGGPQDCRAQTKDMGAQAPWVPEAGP

On to `CN(C(=O)CN1CCOCC1)c1ccc2sc3c(-c4cccc5c(=O)cc(N6CC7CCC(C6)O7)oc45)cccc3c2c1` [NU5455], for which the “% displacement” value was 4.0%.
